Earlier results as cited in patent US20060211721A1, “Nutraceutical formulation of a cognitive enhancement system” (priority 2005, published 2006).

Conditions: background statement

For `C/C=C1\[C@H]2C=C(C)C[C@]1(N)c1ccc(=O)[nH]c1C2` [huperzine, Huperzine A], the oral bioavailability is given as “high oral bioavailability” and the “penetration through the blood brain barrier” value is given as “good penetration through the blood brain barrier”.
